Source: ChEMBL document CHEMBL1124555, “9-Amino-1,2,3,4-tetrahydroacridin-1-ols: synthesis and evaluation as potential Alzheimer's disease therapeutics” (J Med Chem, 1989)

What was measured:
Acetylcholinesterase = biological target: T1, Acetylcholinesterase (Rattus norvegicus, UniProt P37136)
T1 sequence (P37136 whole entry): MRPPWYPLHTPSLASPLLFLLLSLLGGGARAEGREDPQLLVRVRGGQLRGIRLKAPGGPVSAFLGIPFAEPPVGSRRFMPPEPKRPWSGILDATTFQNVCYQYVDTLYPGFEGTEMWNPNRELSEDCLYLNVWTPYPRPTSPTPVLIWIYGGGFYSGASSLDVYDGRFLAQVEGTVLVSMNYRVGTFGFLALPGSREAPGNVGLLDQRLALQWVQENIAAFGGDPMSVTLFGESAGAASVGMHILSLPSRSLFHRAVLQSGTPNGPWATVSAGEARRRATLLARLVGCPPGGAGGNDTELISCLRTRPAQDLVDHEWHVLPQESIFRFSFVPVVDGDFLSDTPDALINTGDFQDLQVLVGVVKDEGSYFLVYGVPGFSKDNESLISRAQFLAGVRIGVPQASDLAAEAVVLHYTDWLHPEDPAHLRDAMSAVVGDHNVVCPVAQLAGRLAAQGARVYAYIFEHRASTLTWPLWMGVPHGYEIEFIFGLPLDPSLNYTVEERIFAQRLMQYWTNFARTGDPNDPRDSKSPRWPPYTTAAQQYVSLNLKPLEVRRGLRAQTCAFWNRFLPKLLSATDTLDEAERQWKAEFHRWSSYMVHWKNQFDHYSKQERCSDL
Description: In vitro inhibition against acetylcholinesterase in rat striata.

[1] = biological target: Sodium-dependent dopamine transporter (Rattus norvegicus, UniProt P23977); assay type: functional
Description: Inhibition of the reuptake of dopamine in rat corpora striata.

[2] = biological target: Sodium-dependent serotonin transporter (Rattus norvegicus, UniProt P31652); assay type: functional
Description: Inhibition of serotonin reuptake in rat whole brains without cerebellum

[3] = biological target: Norepinephrine transporter (Rattus norvegicus, UniProt Q9WTR4)
Description: Inhibition of norepinephrine reuptake in rat whole brains minus cerebellar

in vivo = conditions: rat, ip
Description: Toxicity evaluated in rats after intraperitoneal administration.

Mus musculus [4] = organism: Mus musculus; assay type: functional; conditions: at 0.16 mg/kg
Description: Reversal of scopolamine-induced memory impairment in mice at 0.16 mg/Kg administered subcutaneously.

Mus musculus [5] = organism: Mus musculus; assay type: functional; conditions: at […]
Description: Reversal of scopolamine-induced memory impairment in mice at 0.31 mg/Kg administered subcutaneously.

Mus musculus [6] = organism: Mus musculus; assay type: functional; conditions: at 0.63 mg/kg
Description: Reversal of scopolamine-induced memory impairment in mice at 0.63 mg/Kg administered subcutaneously.

Mus musculus [7] = organism: Mus musculus; assay type: functional; conditions: at 1.25 mg/kg
Description: Reversal of scopolamine-induced memory impairment in mice at 1.25 mg/Kg administered subcutaneously.

Mus musculus [8] = organism: Mus musculus; assay type: functional; conditions: at 2.5 mg/kg
Description: Reversal of scopolamine-induced memory impairment in mice at 2.5 mg/Kg administered subcutaneously.

Mus musculus [9] = organism: Mus musculus; assay type: functional; conditions: at 5 mg/kg
Description: Reversal of scopolamine-induced memory impairment in mice at 5 mg/Kg administered subcutaneously.

[10] = Toxicity was evaluated in rats, after intraperitoneal administration;Value ranges from (40-80).; assay type: organism-based; conditions: rat, in vivo, ip
[11] = Toxicity was evaluated in rats, after intraperitoneal administration;Value ranges from(40-80); assay type: organism-based; conditions: rat, in vivo, ip

Chain of Sodium-dependent serotonin transporter (P31652 whole entry): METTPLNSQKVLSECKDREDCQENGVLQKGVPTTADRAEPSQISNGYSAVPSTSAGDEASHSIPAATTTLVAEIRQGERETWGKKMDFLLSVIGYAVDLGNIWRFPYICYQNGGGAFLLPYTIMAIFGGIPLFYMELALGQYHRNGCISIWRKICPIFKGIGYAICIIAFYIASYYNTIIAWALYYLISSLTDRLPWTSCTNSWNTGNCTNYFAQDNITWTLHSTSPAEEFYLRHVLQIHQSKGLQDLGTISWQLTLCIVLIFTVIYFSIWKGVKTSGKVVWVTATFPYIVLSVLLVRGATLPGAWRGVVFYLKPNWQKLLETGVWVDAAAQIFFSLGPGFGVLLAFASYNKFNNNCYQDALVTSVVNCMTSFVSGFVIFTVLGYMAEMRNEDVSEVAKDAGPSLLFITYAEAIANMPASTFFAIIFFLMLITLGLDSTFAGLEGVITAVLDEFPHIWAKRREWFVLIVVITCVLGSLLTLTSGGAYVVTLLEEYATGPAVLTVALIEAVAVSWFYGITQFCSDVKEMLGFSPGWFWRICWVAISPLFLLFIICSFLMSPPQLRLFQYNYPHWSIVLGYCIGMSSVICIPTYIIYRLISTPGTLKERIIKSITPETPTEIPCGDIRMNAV
Chain of Sodium-dependent dopamine transporter (P23977 whole entry): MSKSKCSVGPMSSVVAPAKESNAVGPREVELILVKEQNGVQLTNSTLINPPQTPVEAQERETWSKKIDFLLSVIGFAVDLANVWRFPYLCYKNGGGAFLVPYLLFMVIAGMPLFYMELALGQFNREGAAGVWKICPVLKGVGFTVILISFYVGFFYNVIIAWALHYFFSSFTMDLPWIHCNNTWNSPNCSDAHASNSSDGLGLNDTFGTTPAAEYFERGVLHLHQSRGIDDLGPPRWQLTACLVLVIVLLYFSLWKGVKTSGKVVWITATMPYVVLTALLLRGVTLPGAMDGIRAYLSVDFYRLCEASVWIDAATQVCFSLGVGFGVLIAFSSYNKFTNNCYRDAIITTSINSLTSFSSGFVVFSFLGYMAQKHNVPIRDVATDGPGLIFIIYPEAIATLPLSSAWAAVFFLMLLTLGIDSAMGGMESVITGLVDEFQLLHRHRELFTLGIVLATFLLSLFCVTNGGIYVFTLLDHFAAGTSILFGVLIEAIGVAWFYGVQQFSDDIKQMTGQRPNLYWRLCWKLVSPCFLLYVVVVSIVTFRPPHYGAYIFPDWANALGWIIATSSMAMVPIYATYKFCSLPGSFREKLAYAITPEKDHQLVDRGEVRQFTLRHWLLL
Chain of Norepinephrine transporter (Q9WTR4 whole entry): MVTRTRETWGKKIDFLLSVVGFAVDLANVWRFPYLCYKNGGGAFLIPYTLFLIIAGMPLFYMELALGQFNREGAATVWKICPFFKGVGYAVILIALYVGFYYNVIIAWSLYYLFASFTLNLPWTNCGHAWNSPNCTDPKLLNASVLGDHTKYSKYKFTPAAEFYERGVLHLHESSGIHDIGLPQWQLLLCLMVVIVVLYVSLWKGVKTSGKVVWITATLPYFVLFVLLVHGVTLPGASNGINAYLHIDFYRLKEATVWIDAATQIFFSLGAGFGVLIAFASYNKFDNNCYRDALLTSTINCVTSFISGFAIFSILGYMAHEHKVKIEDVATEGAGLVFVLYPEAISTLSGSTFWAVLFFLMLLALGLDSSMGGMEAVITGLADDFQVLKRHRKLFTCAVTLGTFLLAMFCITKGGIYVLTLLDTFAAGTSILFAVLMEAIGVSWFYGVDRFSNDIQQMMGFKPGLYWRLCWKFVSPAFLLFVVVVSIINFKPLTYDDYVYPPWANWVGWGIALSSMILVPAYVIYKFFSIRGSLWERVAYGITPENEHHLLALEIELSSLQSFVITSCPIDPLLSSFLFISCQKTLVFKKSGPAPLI

Row | Structure (SMILES) | IC50 (Acetylcholinesterase) [µM] | IC50 [1] [µM] | IC50 [2] [µM] | IC50 [3] [µM] | LD50 (in vivo) [mg/kg] | Animals (Mus musculus [4]) [%] | Animals (Mus musculus [5]) [%] | Animals (Mus musculus [6]) [%] | Animals (Mus musculus [7]) [%] | Animals (Mus musculus [8]) [%] | Animals (Mus musculus [9]) [%] | LD50 [10] [mg/kg] | LD50 [11] [mg/kg]
1 | O=C(O)/C=C/C(=O)O.OC1CCCc2nc3ccccc3c(NCc3cccs3)c21 (configuration not stated) | 15.3 | 2.4 | 20 | 0.29 | > 80 |  |  |  |  |  |  |  | 
2 | O=C(O)/C=C/C(=O)O.OC1CCCc2nc3ccccc3c(NCc3c(F)c(F)c(F)c(F)c3F)c21 (configuration not stated) | 12.6 |  |  | 11 | > 80 | 7 | 7 | 7 | 13 | 0 | 20 |  | 
3 | O=C(O)/C=C/C(=O)O.OC1CCCc2nc3ccccc3c(NCCCC(c3cccc(F)c3)c3cccc(F)c3)c21 (configuration not stated) | 63 |  |  |  | > 80 |  |  |  |  |  |  |  | 
4 | OC1CCCc2nc3cc(Cl)ccc3c(NCc3ccc(F)cc3)c21 (configuration not stated) | 0.823 | 4.1 | 6.6 | 2.2 | > 80 | 13 | 7 | 7 | 7 | 0 | 0 |  | 
5 | Nc1c2c(nc3cc(Cl)ccc13)CCCC2O (configuration not stated) | 0.0117 | > 20 | > 20 | > 20 | > 10 | 7 | 7 | 0 | 7 | 0 | 16 |  | 
6 | OC1CCCc2nc3ccccc3c(NCc3ccc(F)cc3)c21 (configuration not stated) | 16.7 | 2.9 | 12 | 1.8 |  | 7 | 20 | 25 | 27 | 33 | 6 | < 80 | 
7 | COc1ccc(CNc2c3c(nc4ccccc24)CCCC3O)cc1 (configuration not stated) | 10.9 | 5.3 | 5 | 25 | > 80 |  |  |  |  |  |  |  | 
8 | CN(C)CCNc1c2c(nc3ccccc13)CCCC2O (configuration not stated) | 7.68 |  |  |  | > 80 |  |  |  |  |  |  |  | 
9 | OC1CCCc2nc3ccccc3c(NCc3ccc(C(F)(F)F)cc3)c21 (configuration not stated) | 18.1 | 2.4 | 6.6 | 0.27 | > 80 | 22 | 8 | 7 | 15 | 0 | 20 |  | 
10 | OC1CCCc2nc3cc(F)ccc3c(NCc3ccccc3)c21 (configuration not stated) | 8.63 |  |  | 0.2 |  | 13 | 0 | 0 | 0 | 0 | 0 | < 80 | 
11 | OC1CCCc2nc3ccccc3c(NCc3ccccc3Cl)c21 (configuration not stated) | 10.3 | 0.13 | 9.3 | 0.043 | > 80 | 0 | 27 | 7 | 27 | 13 | 7 |  | 
12 | Nc1c2c(nc3cc(F)ccc13)CCCC2O (configuration not stated) | 0.292 |  |  | > 10 | 40 | 73 | 29 | 20 | 20 | 33 | 40 |  | 
13 | OC1CCCc2nc3ccccc3c(NCCCC(c3ccc(F)cc3)c3ccc(F)cc3)c21 (configuration not stated) | 87.8 |  |  |  | > 80 |  |  |  |  |  |  |  | 
14 | OC1CCCc2nc3cc(C(F)(F)F)ccc3c(NCc3ccccc3)c21 (configuration not stated) | 68.2 |  |  |  | > 80 |  |  |  |  |  |  |  | 
15 | COc1ccc2c(N)c3c(nc2c1)CCCC3O (configuration not stated) | 2 |  |  |  | > 80 |  |  |  |  |  |  |  | 
16 | OC1CCCc2nc3ccccc3c(NCCc3ccccc3)c21 (configuration not stated) | 3.39 | 4.7 | 7.7 | 1.4 | > 80 | 7 | 20 | 0 | 23 | 0 | 0 |  | 

Row | Structure (SMILES) | IC50 (Acetylcholinesterase) [µM] | IC50 [1] [µM] | IC50 [2] [µM] | IC50 [3] [µM] | LD50 (in vivo) [mg/kg] | Animals (Mus musculus [4]) [%] | Animals (Mus musculus [5]) [%] | Animals (Mus musculus [6]) [%] | Animals (Mus musculus [7]) [%] | Animals (Mus musculus [8]) [%] | Animals (Mus musculus [9]) [%] | LD50 [10] [mg/kg] | LD50 [11] [mg/kg]
17 | Nc1c2c(nc3ccccc13)CCC2O (configuration not stated) | 5.97 |  |  |  | > 80 | 13 | 13 | 0 | 0 | 7 | 7 |  | 
18 | OC1CCCc2nc3cc(Cl)ccc3c(NCc3ccccc3)c21 (configuration not stated) | 1.3 | 1.3 | 15 | 0.82 | > 80 | 0 | 13 | 7 | 7 | 7 | 0 |  | 
19 | OC1CCCc2nc3ccccc3c(NCc3ccc(Cl)cc3)c21 (configuration not stated) | 27.2 | 9.8 | 5.7 | 1.1 | > 80 |  |  |  |  |  |  |  | 
20 | OC1CCCc2nc3ccccc3c(NCc3cccc(Cl)c3)c21 (configuration not stated) | 13.3 |  |  |  | > 80 |  |  |  |  |  |  |  | 
21 | OC1CCCc2nc3ccccc3c(NCc3ccccc3F)c21 (configuration not stated) | 41.3 | 0.41 | 17 | 0.11 |  | 7 | 14 | 33 | 7 | 20 | 7 | < 80 | 
22 | Cc1ccc(CNc2c3c(nc4ccccc24)CCCC3O)cc1 (configuration not stated) | 21 | 2.2 | 8 | 1.1 | > 80 |  |  |  |  |  |  |  | 
23 | Cc1cccc(CNc2c3c(nc4ccccc24)CCCC3O)c1 (configuration not stated) | 24.5 | 0.51 | 5.5 | 0.22 |  | 7 | 7 | 20 | 20 | 13 | 20 |  | < 80
24 | OC1CCCc2nc3ccccc3c(NCc3cccc(C(F)(F)F)c3)c21 (configuration not stated) | 14.2 | 2.4 | 2.3 | 0.93 |  | 0 | 0 | 0 | 7 | 0 | 0 | < 80 | 
25 | OC1CCCc2nc3ccccc3c(NCCCC(c3ccccc3)c3ccccc3)c21 (configuration not stated) | 49.3 | 2.1 | 5.7 | 1.5 | > 80 | 20 | 6 | 6 | 13 | 0 | 6 |  | 
26 | COc1cccc(CNc2c3c(nc4ccccc24)CCCC3O)c1 (configuration not stated) | 21.1 | 2.1 | 6.2 | 1.5 | > 80 | 0 | 0 | 0 | 0 | 0 | 0 |  | 
27 | COc1ccccc1CNc1c2c(nc3ccccc13)CCCC2O (configuration not stated) | 36 | 0.72 | 9.8 | 4.8 | 80 | 33 | 7 | 20 | 7 | 13 | 27 |  | 
28 | OC1CCCc2nc3cc(F)ccc3c(NCc3ccccc3C(F)(F)F)c21 (configuration not stated) | 20.1 | 0.31 | 20 | 0.54 | > 80 | 0 | 20 | 7 | 0 | 0 | 13 |  | 
29 | OC1CCCc2nc3ccccc3c(NCCCOc3ccccc3)c21 (configuration not stated) | 3.98 |  |  |  | > 80 | 0 | 0 | 0 | 13 | 7 |  |  | 
30 | Nc1c2c(nc3cc(C(F)(F)F)ccc13)CCCC2O (configuration not stated) | 1.77 |  |  |  |  | 40 | 26 | 71 | 33 | 21 | 33 |  | < 80
31 | OC1CCCc2nc3ccccc3c(NCc3cccc(F)c3)c21 (configuration not stated) | 13.1 | 0.3 | 6.2 | 0.12 |  | 33 | 23 | 7 | 0 | 14 | 21 | < 80 | 
